In brackets after ≈: the same amount, converted by molar mass. Square brackets hold non-standard residues; d marks the D form. Peptide text beside a SMILES is read from it. * marks the point of attachment. Palmitoyl = CCCCCCCCCCCCCCCC(=O)*; Dab = NCC[C@H](N)C(=O)O
Key:
[1] = Analytical RP-HPLC retention time as measure of hydrophobicity; assay type: physicochemical; conditions: Jupiter 4 µ Proteo 90 Å 250 x 4.60 mm, linear gradient 15-90% B in A in 30 min, 1 ml/min, A 0.1% aqueous TFA, B 80% acetonitrile in water with 0.1% TFA
Description: The lipopeptides were purified in a Waters RP-HPLC preparative system (Jupiter 4 µ Proteo column, 90 Å, 250 × 10 mm) with the linear gradient of solution B in A from 30% to 60% (A, 0.1% solution of TFA in water and B, 80% solution of ACN in water containing 0.1% of TFA) in 40 min with a flow rate of 5 mL/min. Final purity of the analogues (at least 97%) was determined using an analytical RP-HPLC Shimadzu system (Jupiter 4 µ Proteo column, 90 Å, 250 × 4.60 mm) with the linear gradient of solution B in A from 15% to 90% in 30 min with a flow rate of 1 mL/min. Identity of lipopeptides was confirmed by MALDI-TOF mass spectrometry. Analytical data of the synthesized analogues are presented in Table S1 (Supplementary Materials). ^a linear gradient 15-90% of B in A for 30 min, flow rate 1 ml/min, RP-HPLC Shimadzu system, column: Jupiter 4 µ Proteo, 90 Å, 250 x 4.60 mm; A – 0.1% aqueous TFA solution, B – 80% solution of acetonitrile in water with 0.1% of TFA; ^b molecular masses were determined using MALDI-TOF mass spectrometer.

[2] = Surface tension measurements (critical aggregation concentration); assay type: physicochemical; conditions: Wilhelmy plate method, aqueous solution, 298 K; for Critical aggregation concentration (CAC): surface tension
Description: The surface tension was determined in aqueous solution at 298 K by the Wilhelmy plate method using a Force Tensiometer K100 (Krüss, Hamburg, Germany). The results were presented as a function of decimal logarithm of lipopeptide concentration. The critical aggregation concentration (CAC) was defined as the intersection of two straight lines best fitting to data points before and after reaching the CAC point.

[3] = tested on: Pseudomonas aeruginosa ATCC 9027; assay type: cell-based; conditions: ATCC 9027, 18 h
Excerpt: (§1) Fmoc-Lys(Boc)-OH and the coupling reagents were purchased from GL Biochem (Shanghai, China). Palmitoyl Fmoc-amino acids: Fmoc-Lys(C16)-OH, Fmoc-Orn(C16)-OH, Fmoc-Dab(C16)-OH, and Fmoc-Dap(C16)-OH were acquired from Iris Biotech GmbH (Marktredwitz, Germany). The resin and solvents were purchases from Rapp Polymere (Tübingen, Germany), Merck (Darmstadt, Germany), and Avantor Performance Materials (Gliwice, Poland), respectively. The phospholipids, 1,2-dipalmitoyl-sn-glycero-3-phosphocholine (DPPC), 1,2-dipalmitoyl-sn-glycero-3-[phospho-rac-(1-glycerol)] (DPPG), 1-palmitoyl-2-oleoyl-glycero-3-phosphocholine (POPC) and 1-palmitoyl-2-oleoyl-sn-glycero-3-[phospho-rac-(1-glycerol)] (POPG), were purchased from Avanti Polar Lipids (Alabaster, AL, USA). LPS E. coli 055:B5 and phosphate buffered saline (PBS) were from Sigma-Aldrich (Steinheim, Germany). The Mueller Hinton broth was bought from BIOCORP (Warsaw, Poland) and the RPMI-1640 medium from Sigma-Aldrich (Steinheim, Germany). LIVE/DEAD™ BacLight™ Bacterial Viability Kit was obtained from Thermo Fisher Scientific (Waltham, MA, USA). Bacterial strains (Escherichia coli ATCC 25922, Pseudomonas aeruginosa ATCC 9027, Staphylococcus aureus ATCC 25923, Staphylococcus epidermidis ATCC 1922) and the fungal strain (Candida albicans ATCC 10231) were obtained from the Polish Collection of Microorganisms, Polish Academy of Science, Institute of Immunology and Experimental Therapy, Wroclaw, Poland.
(§2) Antimicrobial activity of the lipopeptides was determined according to the broth microdilution guidelines recommended by the Clinical and Laboratory Standards Institute (CLSI). Minimum inhibitory concentrations (MICs) were assumed as the lowest concentration of the peptide solution, at which the visible growth of microorganisms was inhibited. MIC values of lipopeptides against bacteria were evaluated in the Mueller–Hinton broth and against fungus in the RPMI-1640 medium. Initial inoculums of bacteria and fungus (with concentrations of 5 × 10^5 CFU/mL and 2 × 10^3 CFU/mL, respectively) were exposed to increasing concentrations of lipopeptides solutions over the range of 1–512 µg/mL. […] The 96-well plates filled with appropriate inoculums and the tested compounds were incubated for 18 h at 37 °C. Presented values are the mean of the results obtained in three independent experiments.

[4] = tested on: Escherichia coli ATCC 25922; assay type: cell-based; conditions: ATCC 25922, 18 h
Excerpt: as §1, §2

[5] = tested on: Staphylococcus epidermidis ATCC 1922; assay type: cell-based; conditions: ATCC 1922, 18 h
Excerpt: as §1, §2

[6] = tested on: Staphylococcus aureus ATCC 25923; assay type: cell-based; conditions: ATCC 25923, 18 h
Excerpt: as §1, §2

[7] = tested on: Candida albicans ATCC 10231; assay type: cell-based; conditions: ATCC 10231, 18 h
Excerpt: as §1, §2

[8] = tested on: lipopolysaccharide (LPS) E. coli 055:B5; experiment: Isothermal titration calorimetry, binding to LPS; conditions: ITC, two sets of sites model
Description: Isothermal titration calorimetry (ITC) experiments were carried out at 298.15 K using an AutoITC isothermal titration calorimeter (MicroCal Inc., GE Healthcare, Northampton, MA, USA) equipped with a 1.4491 mL sample cell and a reference cell. A typical ITC experiment involved a series of consecutive injections of 10.02 µL aliquots of the titrant (2 µL for the first injection only) into the reaction cell, at an interval of 4 min. The stirrer speed was constantly kept at 300 rpm to provide thorough mixing inside the reaction cell. Three types of ITC experiments were performed. These included lipopeptides binding to POPG, POPC, and LPS. […] Final results were evaluated with an ITC module for ORIGIN 7 software, provided by MicroCal, Inc. (Northampton, MA, USA). The binding constant, stoichiometry, and enthalpy of interactions were directly determined from ITC experiment by fitting one of the built-in curve fitting models to the experimental data points. Changes in entropy (∆S°) and the Gibbs free energy (∆G°) were calculated from the following equation: ∆G^°=−RTln(55.5Ka)=∆H^°−T∆S^° where 55.5 is the molar concentration of water, R is the gas constant (1.986 cal·mol^−1·K^−1), and T is the absolute temperature.

[9] = intersection of two fitted lines

| SMILES | Retention time (used as measure of hydrophobicity) [1] [min] | γCAC, surface tension at the CAC point [2] [mN/m] | Critical aggregation concentration (CAC) [2] [mg/mL] | Critical aggregation concentration (CAC) [2, 9] [mM] | MIC, P. aeruginosa [3] [µg/mL] | MIC, E. coli [4] [µg/mL] | MIC, S. epidermidis [5] [µg/mL] | MIC, S. aureus [6] [µg/mL] | MIC, C. albicans [7] [µg/mL] | pKITC1, LPS E. coli 055:B5 ([8]; site 1) | pKITC2, LPS E. coli 055:B5 ([8]; site 2) |
| --- | --- | --- | --- | --- | --- | --- | --- | --- | --- | --- | --- |
| CCCCCCCCCCCCCCCC(=O)NCC[C@H](NC(=O)[C@@H](N)CCCCN)C(=O)N[C@@H](CCCCN)C(N)=O [K(DabC16)K-NH2] (H-Lys-[Dab](Palmitoyl)-Lys-NH2) | 23.974 | 39.8 | 4.0 | 6.6 | 16 (≈ 26.1 µM) | 8 (≈ 13.1 µM) | 8 (≈ 13.1 µM) | 8 (≈ 13.1 µM) | 16 (≈ 26.1 µM) | – | – |
| CCCCCCCCCCCCCCCC(=O)NCCC[C@H](NC(=O)[C@@H](N)CCCCN)C(=O)N[C@@H](CCCCN)C(N)=O [K(OC16)K-NH2] | 24.204 | 39.2 | 3.7 | 5.9 | 8 (≈ 12.8 µM) | 8 (≈ 12.8 µM) | 8 (≈ 12.8 µM) | 8 (≈ 12.8 µM) | 8 (≈ 12.8 µM) | – | – |
| CCCCCCCCCCCCCCCC(=O)NCCCC[C@H](NC(=O)[C@H](CCCCN)NC(=O)[C@@H](N)CCCCN)C(=O)N[C@@H](CCCCN)C(=O)N[C@@H](CCCCN)C(N)=O [KK(KC16)KK-NH2] (H-KKK(Palmitoyl)KK-NH2) | 21.745 | – | – | – | 16 (≈ 17.9 µM) | 4 (≈ 4.46 µM) | 8 (≈ 8.93 µM) | 8 (≈ 8.93 µM) | 16 (≈ 17.9 µM) | 7.67 ± 0.29 | 6.38 ± 0.14 |
| CCCCCCCCCCCCCCCC(=O)NCCCC[C@H](NC(=O)[C@@H](N)CCCCN)C(=O)N[C@@H](CCCCN)C(N)=O [K(KC16)K-NH2] | 24.731 | 43.0 | 3.5 | 5.4 | 16 (≈ 25 µM) | 8 (≈ 12.5 µM) | 8 (≈ 12.5 µM) | 4 (≈ 6.25 µM) | 8 (≈ 12.5 µM) | – | – |

Source: paper PMC7728077, “Double-Headed Cationic Lipopeptides: An Emerging Class of Antimicrobials” (International Journal of Molecular Sciences, 2020)
